Target: T1, LHRH rat pituitary receptor (Rattus norvegicus, UniProt P30969)
T1 construct: from tissue; host or cells: rat pituitary
T1 sequence (P30969 1-327): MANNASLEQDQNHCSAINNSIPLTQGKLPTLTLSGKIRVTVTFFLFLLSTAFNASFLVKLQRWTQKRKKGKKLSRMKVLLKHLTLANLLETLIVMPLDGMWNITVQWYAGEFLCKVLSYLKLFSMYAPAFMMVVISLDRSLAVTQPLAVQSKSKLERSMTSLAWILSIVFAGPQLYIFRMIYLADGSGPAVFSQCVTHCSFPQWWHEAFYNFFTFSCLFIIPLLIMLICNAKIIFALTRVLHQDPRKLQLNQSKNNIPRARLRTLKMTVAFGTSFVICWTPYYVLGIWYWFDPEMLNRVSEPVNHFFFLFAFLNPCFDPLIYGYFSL
Test: LHRH rat pituitary receptor binding (pKI)
Settings: in vitro; for Ki: read-out: pKI (receptor binding affinity) (converted)
Method: Representative compounds of the present invention were evaluated in in vitro tests for LHRH rat pituitary receptor binding (pKI) and for LH inhibition from rat pituitary cells for antagonist potency (pA2). […] The receptor binding affinity (pKI) is the negative equilibrium dissociation constants.

**Q.** For “3',3 -N-Bisdesmethyl-3'-N-cyclopropylmethyl-3'-N-4-hydroxymethyl-(2-furylmethyl-11-Deoxy-11-[carboxy-(3,4-dichlorophenethylamino)]-6-O-methyl-erythromycinA 11,12-(cyclic carbamate) [Example 21]”, which “pKI (receptor binding affinity)” value is on record?
**A.** 8.34

**Q.** For “3',3'-N-Bisdesmethyl-3'-N-cyclopentyl-3'-N-cyclopropylmethyl-11-deoxy-11-[carboxy-(3-chloro-4-fluorophenethylamino)]-6-O-methyl-erythromycin A 11,12-(cyclic carbamate) [Example 16]”, which “pKI (receptor binding affinity)” value is on record?
**A.** 8.87

**Q.** Which “pKI (receptor binding affinity)” value does the source give for “3',3'-N-Bisdesmethyl-3'-N-cyclopropylmethyl-3'-N-(2-furyl)methyl-11-deoxy-11-[carboxy-(3-chloro-4-fluorophenethylamino)]-6-O-methyl-erythromycin A 11,12-(cyclic carbamate) [Example 24]” here?
**A.** 8.00

**Q.** With “3',3'-N-Bisdesmethyl-3'-N-cyclopropylmethyl-3'-N-(4hydroxymethyl-2-furyl)methyl-11-deoxy-11-[carboxy-(3-chloro-4-fluorophenethylamino)]-6-O-methyl-erythromycin A 11,12-(cyclic carbamate) [Example 23]” as the molecule, how does the “pKI (receptor binding affinity)” value read?
**A.** 8.98

**Q.** For “3',3'-N-Bisdesmethyl-3'-N-cyclopropylmethyl-3'-N-(6-methyl-2-pyridyl)methyl-11-deoxy-11-[carboxy-(3-chloro-4-fluorophenethylamino)]-6-O-methyl-erythromycin A 11,12-(cyclic carbamate) [Example 25]”, which “pKI (receptor binding affinity)” value is on record?
**A.** 8.58

**Q.** How did the Ki turn out when `CC[C@H]1OC(=O)[C@H](C)[C@@H](O[C@H]2C[C@@](C)(OC)[C@@H](O)[C@H](C)O2)[C@H](C)[C@@H](O[C@@H]2O[C@H](C)C[C@H](N(CC3CC3)CC3CC3)[C@H]2O)[C@](C)(OC)C[C@@H](C)C(=O)[C@H](C)[C@H]2N(CCc3ccc(Cl)c(Cl)c3)C(=O)O[C@]12C` [Example 1] was run?
**A.** 18.6 nM

**Q.** Which Ki does the source give for `CC[C@H]1OC(=O)[C@H](C)[C@@H](O[C@H]2C[C@@](C)(OC)[C@@H](O)[C@H](C)O2)[C@H](C)[C@@H](O[C@@H]2O[C@H](C)C[C@H](N(CC3CC3)CC3CC3)[C@H]2O)[C@](C)(OC)C[C@@H](C)C(=O)[C@H](C)[C@H]2N(CCc3ccc(Cl)cc3)C(=O)O[C@]12C` [Example 3, 3',3'-N-Bisdesmethyl-3',3'-N-biscyclolpropylmethyl-11-deoxy-11-[carboxy-(4-chlorophenetlylamino)]-6-methyl-eryromycin A 11,12-(cyclic carbamate)] here?
**A.** 4.17 nM

**Q.** With `CCCN(C(C)C)[C@H]1C[C@@H](C)O[C@@H](O[C@@H]2[C@@H](C)[C@H](O[C@H]3C[C@@](C)(OC)[C@@H](O)[C@H](C)O3)[C@@H](C)C(=O)O[C@H](CC)[C@@]3(C)OC(=O)N(CCc4ccc(Cl)cc4)[C@@H]3[C@@H](C)C(=O)[C@H](C)C[C@@]2(C)OC)[C@@H]1O` [Example 6, 3',3'-N-Bisdesmethyl-3'-N-isopropyl-3'-N-propyl-11-deoxy-11-[carboxy-(4-chlorophenethylamino)]-6-O-methyl-erythromycin A 11,12-(cyclic carbamate)] as the molecule, how does the Ki read?
**A.** 8.32 nM

**Q.** How did the “pKI (receptor binding affinity)” value turn out when `CC[C@H]1OC(=O)[C@H](C)[C@@H](O[C@H]2C[C@@](C)(OC)[C@@H](O)[C@H](C)O2)[C@H](C)[C@@H](O[C@@H]2O[C@H](C)C[C@H](N(CC3CC3)C(C)C)[C@H]2O)[C@](C)(OC)C[C@@H](C)C(=O)[C@H](C)[C@H]2N(CCc3ccc(Cl)cc3)C(=O)O[C@]12C` [Example 7, 3',3'-N-Bisdesmethyl-3'-N-cyclopropylmethyl-3'-N-isopropyl-11-deoxy-11-carboxy-(4-chlorophenethylamino)]-6-O-methyl-erythromycin A 11,12-(cyclic carbamate)] was run?
**A.** 8.56

**Q.** How did the Ki turn out when `CC[C@H]1OC(=O)[C@H](C)[C@@H](O[C@H]2C[C@@](C)(OC)[C@@H](O)[C@H](C)O2)[C@H](C)[C@@H](O[C@@H]2O[C@H](C)C[C@H](N(CC)C(C)C)[C@H]2O)[C@](C)(OC)C[C@@H](C)C(=O)[C@H](C)[C@H]2N(CCc3ccc(Cl)cc3)C(=O)O[C@]12C` [Example 8, 3',3'-N-Bisdesmethyl-3'-N-ethyl-3'-N-isopropyl-11-deoxy-11-[carboxy-(4-chlorophenethylamino)]-6-O-methyl-erythromycin A 11,12-(cyclic carbamate)] was run?
**A.** 2.51 nM

**Q.** How did the Ki turn out when `CC[C@H]1OC(=O)[C@H](C)[C@@H](O[C@H]2C[C@@](C)(OC)[C@@H](O)[C@H](C)O2)[C@H](C)[C@@H](O[C@@H]2O[C@H](C)C[C@H](N(CC3CCC3)CC3CC3)[C@H]2O)[C@](C)(OC)C[C@@H](C)C(=O)[C@H](C)[C@H]2N(CCc3ccc(Cl)cc3)C(=O)O[C@]12C` [Example 9, 3',3'-N-Bisdesmethyl-3'-N-cyclobutylmethyl-3'-N-cyclopropylmethyl-11-deoxy-11-[carboxy-(4-chlorophenethylamino)]-6-methyl-erythromycin A 11,12-(cycliccarbamate)] was run?
**A.** 6.31 nM

**Q.** How did the Ki turn out when `CC[C@H]1OC(=O)[C@H](C)[C@@H](O[C@H]2C[C@@](C)(OC)[C@@H](O)[C@H](C)O2)[C@H](C)[C@@H](O[C@@H]2O[C@H](C)C[C@H](N(CC3CC3)CC3CC3)[C@H]2O)[C@](C)(OC)C[C@@H](C)C(=O)[C@H](C)[C@H]2N(CCc3ccc(OC)cc3)C(=O)O[C@]12C` [Example 10, 3',3'-N-Bisdesmethyl-3',3'-N-biscyclopropylmethyl-11-deoxy-11-[carboxy-(4-methoxyphenethylamino)]-6-O-methyl-erythromycin A 11,12-(cyclic carbamate)] was run?
**A.** 1.41 nM

**Q.** With `CC[C@H]1OC(=O)[C@H](C)[C@@H](O[C@H]2C[C@@](C)(OC)[C@@H](O)[C@H](C)O2)[C@H](C)[C@@H](O[C@@H]2O[C@H](C)C[C@H](N(CC3CC3)CC3CC3)[C@H]2O)[C@](C)(OC)C[C@@H](C)C(=O)[C@H](C)[C@H]2N(CCc3ccc(F)cc3)C(=O)O[C@]12C` [Example 11, 3',3'-N-Bisdesmethyl-3',3'-N-biscyclopropylmethyl-11-deoxy-11-[carboxy-(4-fluorophenethylamino)]-6-O-methyl-erthromycin A 11,12-(cyclic carbamate)] as the molecule, how does the Ki read?
**A.** 2.19 nM

**Q.** How did the Ki turn out when `CC[C@H]1OC(=O)[C@H](C)[C@@H](O[C@H]2C[C@@](C)(OC)[C@@H](O)[C@H](C)O2)[C@H](C)[C@@H](O[C@@H]2O[C@H](C)C[C@H](N(C3CCC3)C3CCC3)[C@H]2O)[C@](C)(OC)C[C@@H](C)C(=O)[C@H](C)[C@H]2N(CCc3ccc(Cl)c(F)c3)C(=O)O[C@]12C` [Example 12, 3',3'-N-Bisdesmethyl-3',3'-N-biscyclobutyl-11-deoxy-11-[carboxy-(4-chloro-3-fluorophenethylamino)]-O-methl-erythromycin A 11,12-(cyclic carbamate)] was run?
**A.** 1 nM

**Q.** With `CC[C@H]1OC(=O)[C@H](C)[C@@H](O[C@H]2C[C@@](C)(OC)[C@@H](O)[C@H](C)O2)[C@H](C)[C@@H](O[C@@H]2O[C@H](C)C[C@H](N(CC3CC3)CC3CC3)[C@H]2O)[C@](C)(OC)C[C@@H](C)C(=O)[C@H](C)[C@H]2N(CCc3ccc(F)c(Cl)c3)C(=O)O[C@]12C` [Example 15, 3',3'-N-Bisdesmethyl-3',3'-N-biscyclopropylmethyl-11-deoxy-11-[carboxy-(3-chloro-4-fluorophenetlamino)]-6-O-methyl-erythromycin A 11,12-(cyclic carbamate)] as the molecule, how does the Ki read?
**A.** 1.26 nM
